Reference: ChEMBL document CHEMBL3507680, “University of Dundee, Gates Library screen for HepG2 cell viability”

Assay: Human HepG2 cell viability assay in 384 well format
Format: toxicity, cell-based
Parameters: dose 125 nL, time 70.5 hour; cytotoxicity at 70.5 h: concentration not given beside the values
Conditions: HepG2 cells, read-out: Inhibition

SMILES | cytotoxicity at 70.5 h [%]
COc1ccc(CN2CC(=O)N(c3ccc(C)cc3)CC2C)cc1O (stereo not given) | -2.16
Cc1ccc(-c2cc(C(=O)NCCCc3csc(N)n3)[nH]n2)s1 | -3.12
CS(=O)(=O)NC1CCN(C(=O)c2cnc(-c3cccnc3)nc2)CC1 | -7.35
COc1cccc(-c2cc(NCCN(C)C)nc3[nH]ccc23)n1 | -6.53
CSCC(=O)N1CCc2c(cnc(C)c2-c2noc(-c3ccco3)n2)C1 | -17
O=C(c1ccc(=O)[nH]c1)N1CCCC1c1nc2cc(F)ccc2[nH]1 (stereo not given) | -3.97
O=C(c1coc2ccccc12)N1CCCC(O)(CO)CC1 (stereo not given) | -7.66
COc1c(C)cnc(CN(C)C(=O)c2ccc(C3CCCO3)s2)c1C (stereo not given) | -6.12
Cn1ccnc1SCCNc1cc(N2CCOCC2)ncn1 | -19.6
Cc1cccc(N2CCC(N3CCC4(CCCNC4=O)C3)CC2)c1C (stereo not given) | 10.3
COCCC(=O)N1CCC2(CC1)CC(c1ccccc1)CN(C1CC1)C2 (stereo not given) | 0.742
Cc1noc(C)c1CN1CCn2nc(CCC(=O)N3CCCC3)cc2C1 | -2.3
Cc1cc(N2CCCC3(CN(C)C(=O)O3)C2)c2cc3c(cc2n1)OCO3 (stereo not given) | 19.1
CCCn1c(C)c(CC(=O)NCCOC)c2c1CC(C)(C)CC2=O | -0.0334
CCC(CO)N(Cc1cccs1)C(=O)CNS(=O)(=O)c1cccs1 (stereo not given) | -4.61
CCN1CC(C(=O)N2CCN(CCn3cccc3)CC2)CC1=O (stereo not given) | 18.1
CC[C@H]1CN(C(=O)c2cccc(-n3cnnc3)n2)CC[C@@]1(C)O | 19.7
Cc1nc(NCC(O)CN2CCCCCC2)c2c(C)noc2n1 (stereo not given) | -5.74
O=C(CCn1cc(Cl)cn1)N1CCCC(O)(CO)CC1 (stereo not given) | -4.26
Cc1cnc(C(=O)N2CCNCC2C(=O)NCc2ccncc2)cn1 (stereo not given) | 3.98
Cc1ccccc1OCCC(=O)N1CCc2nc(C)n(C)c(=O)c2CC1 | -8.53
COc1ccc(Cc2ncc3c(n2)CN(C(=O)CN(C)C)C3)cc1 | -8
Cc1cccc(C(C)C)c1NC(=O)CN(C)C(C)c1nccs1 (stereo not given) | -9.73
CN(C)C(=O)Cc1ccc(-c2cccc3c2CCNC3)cc1 | -21.8
CCCNc1ncc(CN2CCOC(Cc3cccc(F)c3)C2)cn1 (stereo not given) | -10.7
NC(=O)CN1CC2(CCC1=O)CCN(Cc1cc(F)cc(F)c1)CC2 | -0.945
CCN(Cc1cccc(C(=O)Nc2ncc(C)s2)c1)[C@H]1COC[C@@H]1O | -3.78
CCCn1ncc(C2CC(=O)NCc3nc4cc(C)ccn4c32)c1C (stereo not given) | 2.43

SMILES | cytotoxicity at 70.5 h [%]
CCc1nn(C)c(Cl)c1CN1CCCC2(C1)CN(C)C(=O)O2 (stereo not given) | -11.8
O=C(COc1cccc(F)c1)N1C[C@H](CO)C[C@H](CN2CCCC2)C1 | 6.4
Cc1cc(C)n(CCCN(C)C(=O)CN2CC3(CCNCC3)OC2=O)n1 | -8.19
Cc1ccsc1CN(Cc1ccccn1)CC(O)CO (stereo not given) | -1.67
COc1cnc(N2CCC(c3ncc[nH]3)CC2)nc1 | 17.8
O=C(Nc1ccccc1)N1CCC(N2Cc3ncccc3C2=O)CC1 | -8.29
CCc1ccccc1C(=O)N1C[C@@H](CN2CCOCC2)[C@@H](CO)C1 | 27.9
Cn1ncc(N2CCC(CNC3CC(C)(C)CC(C)(C)C3)C2)cc1=O (stereo not given) | 7.5
CN(CCCc1cnn(C)c1)Cc1cc2n(n1)CCCNC2 | -14.1
CC(C)C1CN(Cc2c[nH]cn2)CCCN1CC1CC1 (stereo not given) | -17.8
OCC(O)CN(CCN1CCOCC1)Cc1ccco1 (stereo not given) | -8.67
Cc1nnc(N2CCN(C)C3(CCC(=O)N(CCO)CC3)C2)s1 (stereo not given) | 22.1
Fc1ccccc1CN1CCCC2(CCN(c3ncccn3)C2)C1 (stereo not given) | -9.02
OCC1COCCN(Cc2cc(C3CCCCC3)no2)C1 (stereo not given) | -9.08
Cc1ccc2nc(C(=O)N3CC(n4nc(C)cc4C)C3)cn2c1 | -9.46
Cc1nc(N2CCC(O)(c3ccccc3)CC2)c2c(C)nn(C)c2n1 | -3.33
CC(C)NC1CCCc2nc(-c3ccccc3)ncc21 (stereo not given) | -14.3
O=C1NCCN(CC2CCCCC2)C1CC(=O)N1CCc2n[nH]cc2C1 (stereo not given) | -1.96
COc1ccc(C(=O)N2C[C@@H](O)[C@H](NCc3cnc(C)cn3)C2)cc1 | 22.1
CCn1c(C)nnc1SCCNC(=O)c1cnc(N(C)C)nc1C | -2.09
COc1cccc(CCC2CCCN(C(=O)c3ccc(OC)o3)C2)c1 (stereo not given) | -3.25
COc1ccccc1OC1(C(=O)O)CCN(c2nc(C)cnc2C)CC1 | -6.64
CN(Cc1cc(C2CC2)[nH]n1)C(=O)c1ccccc1C1CCNC1 (stereo not given) | -3.91
NCC1Cc2cc(-c3cnccn3)cc(Cl)c2O1 (stereo not given) | 0.342
CCCN1CCCC2(CCN(S(=O)(=O)c3cc(C)nn3CC)C2)C1=O (stereo not given) | -21.6
COCC1CCN(C(=O)c2cn(Cc3ccccc3F)nn2)CC1 | 5.43
CCCN1CCCn2nc(CNC(=O)CC3CCS(=O)(=O)C3)cc2C1 (stereo not given) | -3.24
